Laboratory results: US20240368150A1 (Hoffmann-La Roche Inc., priority 2021, published 2024)
Where two headings read alike, the source gives them in different places.

How the values were obtained:
[1] = tested on: primary human T-cells
[2] = tested on: primary human T-cells; assay: Proliferation assay after 5 days (CellTiter-Glo, CD3 stimulation; PBS counter screen); type: cell-based; conditions: Homo sapiens, T-cell, 120 h, CD3 stimulation; for Emax: 5 days, normalized to reference compound A1 as stimulator control = 100%, DMSO neutral control, read-out: Emax proliferation (% activation); for EC50: primary human T-cells, CellTiter-Glo after 5 days, EC50 of fitted sigmoidal curve, read-out: Tcell Proliferation CD3 EC50
How it was run: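 Compounds were added to medium-only plates, and proliferation was read 5 days later as luminescence from CellTiter-Glo 2.0, whose ATP signal is proportional to cell number. Plates and reagent were equilibrated to room temperature for 45 min before an equal volume of reagent was added, with 15 min rocking.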

CC(C)c1nnc(-c2cc3c(cc2F)S(=O)(=O)C[C@H](N)C(=O)N3Cc2ccc(Cl)cc2)o1 [Example 84, (3R)-3-Amino-5-[(4-chlorophenyl)methyl]-8-fluoro-7-(5-isopropyl-1,3,4-oxadiazol-2-yl)-1,1-dioxo-2,3-dihydro-1λ^6,5-benzothiazepin-4-one]
EC50 [1]: 450 nM | Emax [2]: 191% | EC50 [2]: 226 nM

N[C@H]1CS(=O)(=O)c2cc(F)c(-c3nnc(C4CC4)o3)cc2N(Cc2ccc(Cl)cc2)C1=O [Example 85, (3R)-3-Amino-5-[(4-chlorophenyl)methyl]-7-(5-cyclopropyl-1,3,4-oxadiazol-2-yl)-8-fluoro-1,1-dioxo-2,3-dihydro-1λ^6,5-benzothiazepin-4-one]
EC50 [1]: 470 nM | Emax [2]: 100% | EC50 [2]: 237 nM

CN(C)C(=O)c1nnc(-c2cc3c(cc2F)S(=O)(=O)C[C@H](N)C(=O)N3Cc2ccc(Cl)cc2)o1 [Example 87, N,N-dimethyl-5-[(3R)-3-amino-5-[(4-chlorophenyl)methyl]-8-fluoro-1,1,4-trioxo-2,3-dihydro-1λ^6,5-benzothiazepin-7-yl]-1,3,4-oxadiazole-2-carboxamide]
EC50 [1]: 1530 nM | Emax [2]: 82% | EC50 [2]: 2740 nM

CC1(c2nnc(-c3cc4c(cc3F)S(=O)(=O)C[C@H](N)C(=O)N4Cc3ccc(Cl)cc3)o2)CCCO1 (stereo partly drawn) [Example 88, (3R)-3-amino-5-[(4-chlorophenyl)methyl]-8-fluoro-7-[5-(2-methyltetrahydrofuran-2-yl)-1,3,4-oxadiazol-2-yl]-1,1-dioxo-2,3-dihydro-1λ^6,5-benzothiazepin-4-o]
EC50 [1]: 689 nM | Emax [2]: 97% | EC50 [2]: 242 nM

CC(C)OCc1nnc(-c2cc3c(cc2F)S(=O)(=O)C[C@H](N)C(=O)N3Cc2ccc(Cl)cc2)o1 [Example 89, (3R)-3-amino-5-[(4-chlorophenyl)methyl]-8-fluoro-7-[5-(isopropoxymethyl)-1,3,4-oxadiazol-2-yl]-1,1-dioxo-2,3-dihydro-1λ^6,5-benzothiazepin-4-one]
EC50 [1]: 117 nM | Emax [2]: 104% | EC50 [2]: 615 nM

CC(C)(C)NC(=O)c1nnc(-c2cc3c(cc2F)S(=O)(=O)C[C@H](N)C(=O)N3Cc2ccc(Cl)cc2)o1 [Example 90, N-tert-butyl-5-[(3R)-3-amino-5-[(4-chlorophenyl)methyl]-8-fluoro-1,1,4-trioxo-2,3-dihydro-1λ^6,5-benzothiazepin-7-yl]-1,3,4-oxadiazole-2-carboxamide]
EC50 [1]: 819 nM | Emax [2]: 96% | EC50 [2]: 2340 nM

CC1(c2nnc(-c3cc4c(cc3F)S(=O)(=O)C[C@H](N)C(=O)N4Cc3ccc(Cl)cc3)o2)CCOCC1 [Example 92, (3R)-3-amino-5-[(4-chlorophenyl)methyl]-8-fluoro-7-[5-(4-methyltetrahydropyran-4-yl)-1,3,4-oxadiazol-2-yl]-1,1-dioxo-2,3-dihydro-1λ^6,5-benzothiazepin-4-one]
EC50 [1]: 145 nM | Emax [2]: 141% | EC50 [2]: 196 nM

N[C@H]1CS(=O)(=O)c2cc(F)c(-c3nnc(C(=O)N4CCCC(F)(F)C4)o3)cc2N(Cc2ccc(Cl)cc2)C1=O [Example 93, (3R)-3-amino-5-[(4-chlorophenyl)methyl]-7-[5-(3,3-difluoropiperidine-1-carbonyl)-1,3,4-oxadiazol-2-yl]-8-fluoro-1,1-dioxo-2,3-dihydro-1λ^6,5-benzothiazepin-4-one]
EC50 [1]: 660 nM | Emax [2]: 100% | EC50 [2]: 1750 nM

N[C@H]1CS(=O)(=O)c2cc(F)c(-c3nnc(C4CC5(C4)CC(F)(F)C5)o3)cc2N(Cc2ccc(Cl)cc2)C1=O [Example 94, (3R)-3-amino-5-[(4-chlorophenyl)methyl]-7-[5-(2,2-difluorospiro[3.3]heptan-6-yl)-1,3,4-oxadiazol-2-yl]-8-fluoro-1,1-dioxo-2,3-dihydro-1λ^6,5-benzothiazepin-4-one]
EC50 [1]: 161 nM | Emax [2]: 85% | EC50 [2]: 18.1 nM

CS(=O)(=O)CCc1nnc(-c2cc3c(cc2F)S(=O)(=O)C[C@H](N)C(=O)N3Cc2ccc(Cl)cc2)o1 [Example 95, (3R)-3-amino-5-[(4-chlorophenyl)methyl]-8-fluoro-7-[5-(2-methylsulfonylethyl)-1,3,4-oxadiazol-2-yl]-1,1-dioxo-2,3-dihydro-1λ^6,5-benzothiazepin-4-one]
EC50 [1]: 5360 nM | Emax [2]: 67% | EC50 [2]: 6160 nM

N[C@H]1CS(=O)(=O)c2cc(F)c(-c3nnc(C(=O)N4[C@@H]5CCC[C@H]4CC5)o3)cc2N(Cc2ccc(Cl)cc2)C1=O [Example 96, (3R)-3-amino-5-[(4-chlorophenyl)methyl]-8-fluoro-1,1-dioxo-7-[5-[(1R,5S)-8-azabicyclo[3.2.1]octane-8-carbonyl]-1,3,4-oxadiazol-2-yl]-2,3-dihydro-1λ^6,5-benzothiazepin-4-one]
EC50 [1]: 604 nM | Emax [2]: 46% | EC50 [2]: > 2730 nM

N[C@H]1CS(=O)(=O)c2cc(F)c(-c3nnc(-c4ccccc4)o3)cc2N(Cc2ccc(Cl)cc2)C1=O [Example 97, (3R)-3-amino-5-[(4-chlorophenyl)methyl]-8-fluoro-1,1-dioxo-7-(5-phenyl-1,3,4-oxadiazol-2-yl)-2,3-dihydro-1λ^6,5-benzothiazepin-4-one]
EC50 [1]: 1040 nM | Emax [2]: 115% | EC50 [2]: 520 nM

Cc1ccccc1-c1nnc(-c2cc3c(cc2F)S(=O)(=O)C[C@H](N)C(=O)N3Cc2ccc(Cl)cc2)o1 [Example 98, (3R)-3-amino-5-[(4-chlorophenyl)methyl]-8-fluoro-7-[5-(o-tolyl)-1,3,4-oxadiazol-2-yl]-1,1-dioxo-2,3-dihydro-1λ^6,5-benzothiazepin-4-one]
EC50 [1]: 71.2 nM | Emax [2]: 112% | EC50 [2]: 64.6 nM

N[C@H]1CS(=O)(=O)c2cc(F)c(-c3nnc(-c4ccc(F)cc4)o3)cc2N(Cc2ccc(Cl)cc2)C1=O [Example 99, (3R)-3-amino-5-[(4-chlorophenyl)methyl]-8-fluoro-7-[5-(4-fluorophenyl)-1,3,4-oxadiazol-2-yl]-1,1-dioxo-2,3-dihydro-1λ^6,5-benzothiazepin-4-one]
EC50 [1]: 105 nM | Emax [2]: 112% | EC50 [2]: 82.2 nM

Cc1cccc(F)c1-c1nnc(-c2cc3c(cc2F)S(=O)(=O)C[C@H](N)C(=O)N3Cc2ccc(Cl)cc2)o1 [Example 100, (3R)-3-amino-5-[(4-chlorophenyl)methyl]-8-fluoro-7-[5-(2-fluoro-6-methyl-phenyl)-1,3,4-oxadiazol-2-yl]-1,1-dioxo-2,3-dihydro-1λ^6,5-benzothiazepin-4-one]
EC50 [1]: 484 nM | Emax [2]: 89% | EC50 [2]: 49.6 nM

CC(C)Cc1nnc(-c2cc3c(cc2F)S(=O)(=O)C[C@H](N)C(=O)N3Cc2ccc(Cl)cc2)o1 [Example 101, (3R)-3-amino-5-[(4-chlorophenyl)methyl]-8-fluoro-7-(5-isobutyl-1,3,4-oxadiazol-2-yl)-1,1-dioxo-2,3-dihydro-1λ^6,5-benzothiazepin-4-one]
EC50 [1]: 72.2 nM | Emax [2]: 121% | EC50 [2]: 49.1 nM

CC1(c2nnc(-c3cc4c(cc3F)S(=O)(=O)C[C@H](N)C(=O)N4Cc3ccc(Cl)cc3)o2)CNC1 [Example 102, (3R)-3-amino-5-[(4-chlorophenyl)methyl]-8-fluoro-7-[5-(3-methylazetidin-3-yl)-1,3,4-oxadiazol-2-yl]-1,1-dioxo-2,3-dihydro-1λ^6,5-benzothiazepin-4-one]
EC50 [1]: > 10000 nM | Emax [2]: 65% | EC50 [2]: 7690 nM
